Laboratory results published in US9279806B2, “Water-soluble AIE luminogens for monitoring and retardation of fibrillation of amyloid proteins” (THE HONG KONG UNIVERSITY OF SCIENCE AND TECHNOLOGY, priority 2005, dated 2016).

Columns and labels:
[1] = tested on: HG21 DNA; assay: CD spectra: G-quadruplex induction by TPE derivatives; format: biochemical; conditions: 9 μM DNA, 4.5 μM TPE derivative, Tris-HCl pH 7.5, 25 °C
Method: [TPE]=4.5 μM; [HG21]=9 μM and [K^+]=0.5 M.
CD spectral profiles of 9 μM DNA in 5 mM Tris-HCl buffer solutions (pH 7.5) incubated under 25° C. with four different TPE derivatives at 4.5 μM or with 0.5M K^+ ions are studied (FIG. 77). TPE derivatives 1-4 are TTAPE (Example 6), TPE-2 (chemical structure is not shown herein), TPE-3 (chemical structure is not shown herein) and TPE-C2N+ (Example 3), respectively. […] On the other hand, DNA incubated with TTAPE or the known quadruplex inducer; K^+ ions have very similar spectral profiles, while the ellipticities of DNA/TTAPE are somehow weaker than DNA/K^+.

[2] = tested on: G1 (ssDNA that mimics human telomeric sequence) / G-quadruplex; assay: DNA probing and quadruplex recognition by FL/CD of TTAPE with G1; format: binding
Method: G1 is a 21-mer ssDNA that mimics human telomeric sequence. When the DNA is added into a solution of TTAPE in a Tris-HCl buffer, the solution starts to luminesce (FIG. 27A). Similar FL “lightup” phenomenon has been observed in the thiazole orange system. The I/I0 ratio of TTAPE at 470 nm increases rapidly in a narrow DNA concentration range and reaches its maximum at [G1]=5 μM (FIG. 27B). While conventional FL dyes suffer from self-quenching problems at high dye concentrations, the FL of TTAPE is continuously intensified with increasing its concentration (FIG. 28 and FIG. 27B), thanks to its unique AIE feature. In the aqueous buffer, the cationic dye spontaneously binds to the anionic DNA via electrostatic attraction, resulting in the formation of a TTAPE/G1 complex. Hydrophobic interaction between TTAPE and G1 may have also played a role in the binding process. These intermolecular forces lock conformations of the TTAPE molecules bound to the G1 strands. Consequently, the intramolecular rotations of TTAPE are restricted, which thus blocks its radiationless relaxation pathways and activates its FL process.
A complex of ssDNA and TTAPE was prepared by mixing 10 μL G 1 (0.1 mM) and 50 μL TTAPE (0.01 mM) in 5 mM Tris-HCl buffer in a 1.5 ml Eppendorf cup. The solution was incubated at 4° C. for 30 min. G-quadruplex formation was induced by adding 10 μl of a 1.0 M KCl solution into the Eppendorf cup. The final concentrations of TTAPE and G1 were kept at 4.5 and 9.0 μM, respectively. For other cationic species, the same amounts of corresponding salts were used. Kinetic experiment was conducted immediately after the injection of the cationic solution, while other spectral measurements were performed after an incubation period of 30 min.
DNA samples of G1, C1 and C2 were obtained from Operon in desalt purity and used without further purification. G1 was chosen as a model ssDNA mimicking the human telomeric repeat sequence d(T2AG3), which is capable of forming intramolecular G-quadruplex. Concentrations of the DNA strands were determined by measuring their absorptivity (E) values at 260 nm in a 100 μL quartz cuvette [ε(×10^5 M^−1 cm^−1): 2.14 (G1), 1.85 (C1), 1.85 (C2)]. Water was purified by a Millipore filtration system. Buffer solution was prepared by titrating 5 mM Tris with HCl until its pH value reached 7.50. All experiments were performed at room temperature unless otherwise specified.

[3] = tested on: H21; assay: Job plots for the binding of TTAPE to H21
Method: The sum of TTAPE and DNA concentrations was kept at 10 μM. Fluorescent intensities for the bound TTAPE at 470 nm are normalized to the maximum increase in each case. The y-axis represents the difference in PL intensity for mole fraction of ligand (χL) in DNA. Intercept mole fraction values were determined from least-squares fits to the linear data portions, giving yjni values of 0.50 (1:1 stoichiometry) for H21 in K-Tris, 0.67 […] for H21 in Na-Tris, and 0.75 […] for H21 in Tris-HCl, respectively.

[4] = tested on: G1; assay: Time-dependent FL of G1 folding; format: biochemical, human
Method: Time-dependent FL was measured on a FluostarOptima multifunctional microplate reader (BMG Labtechnologies) with λex/λem set at 350/470 nm. To gain insight into dynamics of the folding process of G1, time-dependent FL measurements are performed. Solutions containing TTAPE and G1 are first incubated for 30 min to ensure complete dye/DNA complexation and transferred to a 96-well microtiter plate after incubation. Appropriate amounts of metal ions were added by an automatic injection mode. Kinetic measurements were performed at 20° C. and the FL data were recorded in every 4 s. The change in the emission intensity (1) of the solution after the addition of K^+ can be fitted by a second-order exponential curve: I=A1e^−t/τ1+A2e^−t/τ2+c Eq. (1) where t is the time, τ1 and r2 are the time constants of FL recovery, A^1 and A^2 are the respective amplitudes (the folding process is characterized by negative A values), and c is the FL intensity at t=infinity. Mean time constant (<τ>) was calculated according to eq. 2:
In one embodiment, a solution of potassium chloride is then injected at time t=0 (automatic injection mode) and the emission intensity at 470 nm is monitored. The emission drops abruptly to ˜30% of its original intensity at the beginning but starts to recover after ˜8 s and finally reaches a plateau at ˜320 s (FIG. 42). […]

[5] = entry 1: K+ added to TTAPE/G1 mixture, room temperature
[6] = entry 2: G1 added to TTAPE/K+ mixture
[7] = entry 3: TTAPE added to G1/K+ mixture

## CC[N+](CC)(CC)CCOc1ccc(C(=C(c2ccc(OCC[N+](CC)(CC)CC)cc2)c2ccc(OCC[N+](CC)(CC)CC)cc2)c2ccc(OCC[N+](CC)(CC)CC)cc2)cc1.[Br-].[Br-].[Br-].[Br-] [TTAPE, 1,1,2,2-tetrakis[4-(2-triethylammonioethoxy)phenyl]ethene tetrabromide]
[1]
  G-quadruplex induction (CD spectral profile): acts as an internal quadruplex inducer under 25 °C
[2]; K+ added to TTAPE/G1
  Red-shift of excitation and emission spectra on quadruplex formation: ~20 nm
[2]; TTAPE 4.5 μM in Tris-HCl buffer
  G1 concentration at which I/I0 at 470 nm reaches its maximum: 5 µM
[2]; [5]
  CD intensity (relative intensity at 295 nm): 1.00
  FL intensity (relative intensity at 492 nm): 1.00
[2]; [6]
  CD intensity (relative intensity at 295 nm): 0.92
  FL intensity (relative intensity at 492 nm): 0.82
[2]; [7]
  CD intensity (relative intensity at 295 nm): 0.88
  FL intensity (relative intensity at 492 nm): 0.70
[3]; H21 in K-Tris buffer pH 7.50
  Job plot intercept mole fraction: 0.50
[3]; H21 in Na-Tris buffer pH 7.50
  Job plot intercept mole fraction: 0.67
[3]; H21 in Tris-HCl buffer pH 7.50
  Job plot intercept mole fraction: 0.75
[4]; K+ 0.5 M injected into TTAPE/G1, 470 nm, 20 °C
  Weighted mean time constant (<τ>) of FL recovery: 116 s
[4]; K+ injected into TTAPE/G1, 470 nm
  Time at which recovered emission reaches a plateau: ~320 s
